{
  "source": "patent US5830994A",
  "about": "“Peptide derivatives of alpha-MSH and their application” (Institut Europeen De Biologie Cellulaire, priority 1993, dated 1998)",
  "key": {"[1]": {"system": "DNFB contact hypersensitivity", "assay": "Dinitrofluorobenzene (DNFB) contact hypersensitivity test, ear thickening after topical application", "type": "in vivo, C57 BL/6JICO mice", "conditions": "for % suppression relative to the control batch, LEFT EAR / % suppression relative to the control batch, RIGHT EAR / MEAN VALUES LEFT EAR % INCREASE / MEAN VALUES RIGHT EAR % INCREASE: 5 days", "excerpt": "Study of the Anti-allergic activity of the Peptide compounds, by the Dinitrofluorobenzene (DNFB) contact Hypersensitivity test.\nFemale C57 BL/6JICO mice 5 weeks old are separated into ten batches of ten animals (five per cage), with free access to water and food, subjected to a photoperiod of twelve hours of light per twenty-four hours.\nThe animals in batches 1 to 6 receive daily and per topical application on the shaved skin of the back, the products to be studied, dissolved in propylene glycol, in a constant volume of 50 μl and for five consecutive days.\nPIII--Batches 1 - 2 - 3--2.5 μg --0.5 μg--0.1 μg--mouse/day\nPIV--Batches 4 - 5 - 6 - 2.5μg--0.5 μg--0.1 μg--mouse/day\nThe animals of the X batch serve as controls (and receive only, 50 μl of propylene glycol per topical application for five days).\n(§1) On the fifth day, thirty minutes after the last application, all the mice are sensitized with 25 μl of DNFB (2.4-Dinitro-1-FluoroBenzene (FLUKA CHEMIKA PURUM at 97% batch No. 33820890) at 2% in a 4 to 1 mixture of acetone (SDS ref. 0510) and triolein (FLUKA) applied topically over the dorsal region of shaved skin.\nOn the sixth day, a new sensitization is carried out by application of DNFB.\nOn the eleventh day, the thickness of the ears of the mice is measured with the aid of a micrometer (ROCH 0 to 25 mm in 1/100 mm) in order to obtain base values, then the ears are stimulated by topical application of 20 μl of DNFB at 0.8%.\n(§2) On the twelfth day, the thickness of the ears is again measured. The mean value of thickening of the ears is established for the mice in the batches which had received the products to be studied, as well as for the mice in the control batch.\nThe percentage of suppression where appropriate will be expressed by the following calculation: [formula]\nComparative study of the activity of Lipoyl-Peptides and of their peptide structures on DNFB contact hypersensitivity.\nThe method used is that described above in Example 10.\nContact hypersensitivity induced in mice by Dinitrofluorobenzene--\"DNBF\"\nBatch I: (DL) - Lip - Glu - His - D.homoPhe - Arg - Trp - Gly - NH2\nBatch II: H - Glu - His - D.homoPhe - Arg - Trp - Gly - NH2\nBatch III: Control=(DL) - Lipoic Acid\nSolvent: propylene Glycol previously used as control in Example 10.\nControl: dose used\"DL-Lipoic-Acid\"=10 ng per mouse and per day.\nas §1, with “were” for “are”, “05510)” for “0510)”\nas §2, with “batch. The percentage of suppression where appropriate will be expressed by the following calculation: [formula]” for “batch.”"}, "[2]": {"system": "embryonic cells (melanoblasts, neuroblasts, myoblasts, epidermal cells, fibroblasts, mesenchymatous cells)", "type": "cell-based, Triton embryo and Axolotl embryo", "experimental": "Qualitative and quantitative analysis of the effects of PIV on melanocyte differentiation in in vitro culture. Sample to be analyzed--compound 4=PIV Embryonic cells isolated in in vitro culture in a defined, purely saline medium (standard culture conditions: 2 ml of medium/culture). The embryonic territory is collected (from Triton embryo and from Axolotl embryo) from the first stage of melanogenesis, immediately after melanocyte induction. At this early stage of embryonic development, the neural swelling, which has just become individualized, contains all the melanoblastic precursors. The culture of the cells of the neural swelling and of the underlying mesoderm makes it possible to coculture (under completely identical conditions) the melanoblasts with various other cell precursors belonging to various categories: neuroblasts, myoblasts, epidermal cells, fibroplasts [sic], mesenchymatous cells. This allows a comparative kinetic study, on a living material, of the effects of PIV on the melanocytes and various other cell types. Duration of the culture (primary culture): 2 to 3 weeks at 20° C. The cell differentiation appears morphologically from the 3rd day and is practically complete at 8-10 days of culture. A series of PIV concentrations was analyzed: 0.01 μg/ml; 0.1 μg/ml; 1 μg/ml; and 10 μg/ml The following 2 doses were therefore selected for this work: 0.1 and 1 μg/ml. 1 single treatment during the innoculation of cultured cells. After their attachment (3 days at 20° C.), the medium is replaced with fresh medium without the Peptide PIV 1 treatment during the innoculation and a 2nd treatment during the change of medium. We developed two melanin assays: by HPLC with electrochemical detection by spectrophotometry (by adaptation of the method of TOMITA et al. 1990) at 470 nm. The development of these assays was carried out using standard solutions of melanin (Sigma, ref. M 8631) in order to define the comparative sensitivity and the minimum level of detection by either of the methods. The μg is the minimum level which can be assayed by spectrophotometry; the ng is the lower level which can be assayed by HPLC. It should however, be observed that these two techniques, especially the spectrophotometric assay, can be used since, for our cell cultures, 15 embryonic explants associated in culture are sufficient to allow quantification (by spectrophotometry)."}, "cultured embryonic cells": {"system": "cultured embryonic cells", "assay": "Effects of Peptides PI and PIV on cultured embryonic cells in vitro (melanocytes, neurons, muscular cells, fibroblasts)", "type": "cell-based", "experimental": "Effects of Peptides PI and PIV on cultured embryonic cells in vitro . . . \"Melanocytes - Neurons - Muscular Cells and Fibroblasts . . . \" dose used 1 μg/ml (defined by dose/response trials)\n1 single treatment during the innoculation of the cells or several successive treatments (renewal of the medium every 48 hours) duration of culture: 6 to 8 days\n1) Counting of the melanocytes\n2) Assay of melanin by HPLC and/or by spectrophotometry\nDaily observation of the cultures\nUltrastructure by transmission electron microscopy."}},
  "note": "Where “and” joins values, the source holds several entries; their conditions need not be identical. Equal values may be shown once. Read-outs that look alike come from different tables or passages of the source.",
  "data": [
    {"substance": "[(DL) Lip] His - D.homoPhe - Arg - Trp - NH2 [PIV]", "values": [
      {"measurement": "% suppression relative to the control batch, LEFT EAR", "setting": "[1]; 0.1 μg/mouse/day topical", "result": -65.46, "unit": "%"},
      {"measurement": "% suppression relative to the control batch, RIGHT EAR", "setting": "[1]; 0.1 μg/mouse/day topical", "result": -65.46, "unit": "%"},
      {"measurement": "MEAN VALUES LEFT EAR % INCREASE", "setting": "[1]; 0.1 μg/mouse/day topical", "result": 20.35, "unit": "%"},
      {"measurement": "MEAN VALUES RIGHT EAR % INCREASE", "setting": "[1]; 0.1 μg/mouse/day topical", "result": 20.35, "unit": "%"},
      {"measurement": "% suppression relative to the control batch, LEFT EAR", "setting": "[1]; 0.5 μg/mouse/day topical", "result": -69.40, "unit": "%"},
      {"measurement": "% suppression relative to the control batch, RIGHT EAR", "setting": "[1]; 0.5 μg/mouse/day topical", "result": -69.40, "unit": "%"},
      {"measurement": "MEAN VALUES LEFT EAR % INCREASE", "setting": "[1]; 0.5 μg/mouse/day topical", "result": 18.03, "unit": "%"},
      {"measurement": "MEAN VALUES RIGHT EAR % INCREASE", "setting": "[1]; 0.5 μg/mouse/day topical", "result": 18.03, "unit": "%"},
      {"measurement": "% suppression relative to the control batch, LEFT EAR", "setting": "[1]; 2.5 μg/mouse/day topical", "result": -69.47, "unit": "%"},
      {"measurement": "% suppression relative to the control batch, RIGHT EAR", "setting": "[1]; 2.5 μg/mouse/day topical", "result": -69.47, "unit": "%"},
      {"measurement": "MEAN VALUES LEFT EAR % INCREASE", "setting": "[1]; 2.5 μg/mouse/day topical", "result": 17.99, "unit": "%"},
      {"measurement": "MEAN VALUES RIGHT EAR % INCREASE", "setting": "[1]; 2.5 μg/mouse/day topical", "result": 17.99, "unit": "%"},
      {"measurement": "suppression of the cutaneous hypersensitivity reaction induced by DiNitroFluoroBenzene", "setting": "[1]; overall, Example 10 (2.5, 0.5, 0.1 μg/mouse/day)", "result": 68.11, "unit": "%"},
      {"measurement": "cell proliferation of epidermis cells, mesenchymatous cells, fibroblasts (in words)", "setting": "[2]", "result": "no specific cell proliferation"},
      {"measurement": "cytotoxic effect on epidermis cells, mesenchymatous cells, fibroblasts (in words)", "setting": "[2]", "result": "no cytotoxic effect"},
      {"measurement": "differentiation and behaviour in vitro of epidermis cells, mesenchymatous cells, fibroblasts (in words)", "setting": "[2]", "result": "no retardation or accelaration"},
      {"measurement": "number of neurons and size of the cell bodies, neuroblasts (in words)", "setting": "[2]", "result": "no specific stimulating effect"},
      {"measurement": "size and spreading of epidermis cells, mesenchymatous cells, fibroblasts (in words)", "setting": "[2]", "result": "no stimulating effect"},
      {"measurement": "effect on melanocyte differentiation, dose/response trial (in words)", "setting": "[2]; 0.01 μg/ml", "result": "no effect"},
      {"measurement": "effect on melanocyte differentiation, dose/response trial (in words)", "setting": "[2]; 1 μg/ml", "result": "optimal effect"},
      {"measurement": "effect on melanogenesis (in words)", "setting": "[2]; 0.1 and 1 μg/ml", "result": "Stimulating effect"},
      {"measurement": "Stimulation (melanin, treated vs control cultures)", "setting": "[2]; 1st to 4th experiment", "result": "2.5 × and 2.3 × and 1.5 ×"},
      {"measurement": "appearance of phenotypic differentiation of the melanocytes (in words)", "setting": "[2]; treated cultures, from the 2nd day after innoculation, vs control cultures", "result": "more rapidly"},
      {"measurement": "number of melanocytes (in words)", "setting": "[2]; treated vs control cultures", "result": "increase"},
      {"measurement": "effect on precursor embryonic cells not yet determined in the melanoblastic pathway (in words)", "setting": "cultured embryonic cells; 1 μg/ml", "result": "no effect"},
      {"measurement": "effect on the melanoblasts already induced (in words)", "setting": "cultured embryonic cells; 1 μg/ml", "result": "stimulating effect"},
      {"measurement": "number of melanocytes increases by a factor", "setting": "cultured embryonic cells; 1 μg/ml", "result": "≥ 2"},
      {"measurement": "toxic effect on astroglial cells (in words)", "setting": "cultured embryonic cells; 1 μg/ml", "result": "No toxic effect"},
      {"measurement": "toxic effect on fibroblasts, mesenchyme (in words)", "setting": "cultured embryonic cells; 1 μg/ml", "result": "no toxic effect"},
      {"measurement": "quantity of biosynthesized melanin per cell", "setting": "cultured embryonic cells; 1 μg/ml, after eight days of culture", "result": 1.4, "unit": "ng/cell"},
      {"measurement": "toxic effect on myoblasts (in words)", "setting": "cultured embryonic cells; 1 μg/ml, even at an ultrastructural level", "result": "no toxic effect"},
      {"measurement": "effect on melanogenesis, summary (in words)", "setting": "cultured embryonic cells; qualitative and quantitative", "result": "stimulate melanogenesis"},
      {"measurement": "cytotoxic effect on the various cell categories (in words)", "setting": "cultured embryonic cells; summary", "result": "no cytotoxic effect"},
      {"measurement": "stimulating effect on the other cell types: neurons, astrocytes, muscle cells, fibroblasts (in words)", "setting": "cultured embryonic cells; summary", "result": "without stimulating effect"}
    ]}
  ]
}
